Patent US11197862B2, “Methods of preventing toxicity of platinum drugs” (XOMICS BIOPHARMA, INC., priority 2015, dated 2021)
pIC50: −log10 of the molar value. Read-outs that look alike come from different tables or passages of the source.

Legend:
OCT2 [1] = target: T1, OCT2 (Homo sapiens, UniProt O15244); assay: Inhibition of OCT2-mediated oxaliplatin uptake in transfected MDCK-II cells (protein-free HBSS); conditions: for inhibition at 30 min, 5 μM / inhibition at 30 min, 50 μM / potency estimated from few doses at 30 min: human
T1 sequence (O15244 1-555): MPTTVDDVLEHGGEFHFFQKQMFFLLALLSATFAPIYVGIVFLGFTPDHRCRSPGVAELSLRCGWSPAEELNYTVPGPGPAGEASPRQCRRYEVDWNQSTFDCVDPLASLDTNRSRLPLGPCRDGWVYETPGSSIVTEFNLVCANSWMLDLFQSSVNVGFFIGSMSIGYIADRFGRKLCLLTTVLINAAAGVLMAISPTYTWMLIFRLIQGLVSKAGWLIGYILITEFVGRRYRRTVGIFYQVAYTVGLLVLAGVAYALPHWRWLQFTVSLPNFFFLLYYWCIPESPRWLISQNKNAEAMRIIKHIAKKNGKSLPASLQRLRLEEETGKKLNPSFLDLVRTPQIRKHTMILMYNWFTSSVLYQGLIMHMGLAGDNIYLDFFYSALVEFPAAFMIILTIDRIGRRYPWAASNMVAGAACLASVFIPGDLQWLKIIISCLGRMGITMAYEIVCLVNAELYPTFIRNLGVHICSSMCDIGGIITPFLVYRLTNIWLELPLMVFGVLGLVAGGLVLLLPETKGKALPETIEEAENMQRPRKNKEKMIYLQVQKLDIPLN
From the text: Fully confluent MDCK cell monolayers were transfected with either cDNA plasmids encoding the human transporter to be tested or a GFP control. […] The cells were then washed with ice-cold PBS and lysed with 50:50 acetonitrile:H2O. Intracellular content of the substrate was quantified by LC/MS/MS or a MicroBeta radiometric plate reader.

OCT2 [2] = target: T1, OCT2; assay: Inhibition of OCT2-mediated ASP+ uptake (Kido et al., Giacomini group)
OCT2 [3] = target: T1, OCT2; conditions: OCT2-mediated uptake; ASP+ 5 μM in HBSS; from Kido Y et al. J Med Chem 2011; cited from earlier work
[4] = cited from earlier work; for Plasma protein binding (%): published data; for Cmax: read-out: Plasma peak total concentration Cmax, published clinical pharmacokinetic data
[5] = Published clinical pharmacokinetic data; conditions: from published Cmax and protein binding
OCT2 [6] = target: T1, OCT2; assay: Inhibition of OCT2-mediated metformin uptake in transfected MDCK-II cells; conditions: for inhibition at 5 min, 5 μM / inhibition at 5 min, 50 μM: human
OCT2 [7] = target: T1, OCT2; assay: in vitro
[8] = clinical dose; cited from earlier work
[9] = human, in vivo
OCT2 [10] = target: T1, OCT2; assay: Inhibition of OCT2-mediated oxaliplatin transport in 100% human serum or HBSS containing 4% BSA (IC50,app)
[11] = human, cell line expressing human OCT2 (cell line not given), probe ASP+ 5 μM
[12] = MDCK-II cells transfected with human OCT2, probe oxaliplatin 10 μM
[13] = IC50 (μM) (substrate Oxaliplatin)

SMILES | inhibition at 30 min, 5 μM (OCT2 [1]) [%] | inhibition at 30 min, 50 μM (OCT2 [1]) [%] | potency estimated from few doses at 30 min (OCT2 [1]) [µM] | potency estimated from few doses (OCT2 [2]; [11]) [µM] | Inhibition % @ 20 μM (substrate ASP+) (OCT2 [3]) [%] | pIC50 (OCT2 [1]) | Plasma protein binding (%) [4] [%] | Cmax [4] [nM] | Plasma peak unbound concentration Cmax,u [5] [nM] | pIC50 (OCT2 [6]) | inhibition at 5 min, 5 μM (OCT2 [7]) [%] | inhibition at 5 min, 50 μM (OCT2 [7]) [%] | potency estimated from few doses at 30 min (OCT2 [1]; [13]) [µM] | also measured
OCC(O)COc1ccc(Cl)cc1 (stereo not shown) [Chlorphenesin] | 14 | 30 | 118 | 0.86 | 96 |  |  |  |  |  |  |  |  | 
NC1=NCC2c3ccccc3Cc3ccccc3N12 (stereo not shown) [Epinastine] | 96 | 100 | 0.19 | 0.58 | 97 | 6.72 | 64.2 | 120 | 40 | 5.41 |  |  |  | inhibition at 5 min, 5 μM (OCT2 [6]): 56%; inhibition at 5 min, 50 μM (OCT2 [6]): 92%
C=C1C[C@@H]2[C@H](CC[C@]3(C)C(=O)CC[C@@H]23)[C@@]2(C)C=CC(=O)C=C12 [Exemestane] |  |  |  | < 0.1 | 100 | 6.72 | 90 | 91 | 10 | 5.59 | 66 | 94 |  | inhibition at 30 min, 5 μM (OCT2 [1]; [12]): 96%; inhibition at 30 min, 50 μM (OCT2 [1]; [12]): 102%; potency estimated from few doses at 30 min (OCT2 [1]; [12]): 0.19 µM
Cc1ccc(NC(=O)c2ccc(CN3CCN(C)CC3)cc2)cc1Nc1nccc(-c2cccnc2)n1 [Imatinib] | 57 | 95 |  | < 0.1 | 103 |  |  |  |  |  |  |  | 3.7 | fold less potent as inhibitor of OCT2-mediated metformin and oxaliplatin uptake than of ASP+ uptake (OCT2 [1]; comparison of Table 1 potencies): > 30 fold
CC(C)[N+]1(C)[C@@H]2CC[C@H]1CC(OC(=O)C(CO)c1ccccc1)C2.[Br-] (stereo partly shown) [Ipratropium•Br] |  |  |  |  | 96 |  |  |  |  |  |  |  |  | Inhibition % @ 5 μM (substrate Oxaliplatin) (OCT2 [1]; OCT2-mediated uptake, oxaliplatin 10 μM in HBSS, 30 min, inhibitor 5 μM): 107%; Inhibition % @ 50 μM (substrate Oxaliplatin) (OCT2 [1]; OCT2-mediated uptake, oxaliplatin 10 μM in HBSS, 30 min, inhibitor 50 μM): 104%; potency estimated from few doses (OCT2 [1]; read-out: IC50 (μM) (substrate Oxaliplatin), OCT2-mediated uptake, oxaliplatin 10 μM in protein-free HBSS, estimated from single concentration or nonlinear regression): < 0.1 µM; pIC50 (OCT2 [1]; read-out: IC50 or Ki, intrinsic inhibition constant in protein free HBSS, OCT2-mediated oxaliplatin uptake): > 7.00; potency estimated from few doses (OCT2 [2]; read-out: IC50 (μM) (substrate ASP+), estimated from the inhibition at the single concentration 20 μM): 0.81 µM; Inhibition % @ 5 μM (substrate Metformin) (OCT2 [6]; OCT2-mediated uptake, metformin 10 μM in HBSS, 5 min, inhibitor 5 μM): 94%; Inhibition % @ 50 μM (substrate Metformin) (OCT2 [6]; OCT2-mediated uptake, metformin 10 μM in HBSS, 5 min, inhibitor 50 μM): 97%; IC50 (OCT2 [6]; read-out: IC50 (μM) (substrate Metformin), OCT2-mediated uptake, metformin 10 μM in HBSS, estimated from 50 μM or regression of seven concentrations (±SEM)): 0.32 µM
N=C(N)c1ccc(OCCCCCOc2ccc(C(=N)N)cc2)cc1 [Pentamidine] | 99 | 99 |  | < 0.1 | 102 | 7.17 | 69 | 730 |  | 5.60 | 67 | 91 | 0.07 | patients with nephrotoxicity at a clinical dose [8]: ~25%; Plasma peak unbound concentration Cmax,u [9]: 230 nM
CC(C)[N+](C)(CCOC(=O)C1c2ccccc2Oc2ccccc21)C(C)C [Propantheline•Br] |  |  |  | < 0.1 | 107 | > 7.00 |  | 134 |  | 5.77 | 75 | 96 | < 0.1 | inhibition at 30 min, 5 μM (OCT2 [1]; [12]): 103%; inhibition at 30 min, 50 μM (OCT2 [1]; [12]): 102%; IC50 (OCT2 [10]; IC50,app (μM), apparent inhibition constant in 100% human serum or HBSS containing 4% BSA, OCT2-mediated oxaliplatin uptake): 0.24 µM
C[N+]1(C)[C@@H]2C[C@@H](OC(=O)C(O)(c3cccs3)c3cccs3)C[C@H]1[C@@H]1O[C@@H]12 [Tiotropium•Br] | 98 | 102 | 0.12 |  |  | 6.92 | 72 | 34 | 10 | 5.82 |  |  |  | pIC50 (OCT2 [10]): 5.96; inhibition at 5 min, 5 μM (OCT2 [6]): 77%; inhibition at 5 min, 50 μM (OCT2 [6]): 95%
